In ChEMBL document CHEMBL1909046, “DrugMatrix in vitro pharmacology data”:

Columns and labels:
[1] = biological target: Aldo-keto reductase family 1 member B1 (Rattus norvegicus, UniProt P07943); test: biochemical; type: tissue-based, Lens of camera-type eye;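 note: inhibition of aldose reductase enzyme activity, measured with DL-glyceraldehyde as the substrate; in other assays of this panel Not Active means under 50% inhibition at 10 µM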
D(3) dopamine receptor = D(3) dopamine receptor (Homo sapiens, UniProt P35462); test: DRUGMATRIX: Dopamine D3 radioligand binding (ligand: [3H] Spiperone); type: cell membranes, CHO, Membrane; conditions: for Ki: read-out: Ki
Chain of D(3) dopamine receptor (P35462 whole entry): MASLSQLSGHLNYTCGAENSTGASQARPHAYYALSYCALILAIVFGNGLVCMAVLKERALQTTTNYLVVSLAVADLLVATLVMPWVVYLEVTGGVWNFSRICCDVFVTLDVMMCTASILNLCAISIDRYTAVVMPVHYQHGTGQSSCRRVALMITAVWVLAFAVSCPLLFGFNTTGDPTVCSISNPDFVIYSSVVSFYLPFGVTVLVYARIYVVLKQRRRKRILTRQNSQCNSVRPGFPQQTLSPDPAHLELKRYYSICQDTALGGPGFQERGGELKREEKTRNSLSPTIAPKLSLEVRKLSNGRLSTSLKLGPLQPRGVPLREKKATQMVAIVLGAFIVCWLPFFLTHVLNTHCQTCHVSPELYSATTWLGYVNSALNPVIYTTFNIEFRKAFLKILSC

Histamine H2 receptor = Histamine H2 receptor (Homo sapiens, UniProt P25021); type: cell membranes, CHO-K1, Membrane; conditions: for Ki: read-out: Ki; for all read-outs here: in other assays of this panel Not Active means under 50% inhibition at 10 µM
Chain of Histamine H2 receptor (P25021 whole entry): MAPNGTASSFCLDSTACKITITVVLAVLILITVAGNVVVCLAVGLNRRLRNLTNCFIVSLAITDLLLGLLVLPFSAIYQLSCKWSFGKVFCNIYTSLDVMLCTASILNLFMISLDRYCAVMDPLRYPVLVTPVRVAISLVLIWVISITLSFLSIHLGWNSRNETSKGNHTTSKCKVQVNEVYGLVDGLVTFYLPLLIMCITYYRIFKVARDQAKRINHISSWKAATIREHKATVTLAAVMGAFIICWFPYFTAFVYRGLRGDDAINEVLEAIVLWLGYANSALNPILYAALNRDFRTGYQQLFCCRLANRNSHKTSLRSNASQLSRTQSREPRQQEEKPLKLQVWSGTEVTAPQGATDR

[2] = biological target: Delta-type opioid receptor (Homo sapiens, UniProt P41143); type: cell membranes, HEK293, Membrane; note: in other assays of this panel Not Active means under 50% inhibition at 10 µM
Chain of Delta-type opioid receptor (P41143 whole entry): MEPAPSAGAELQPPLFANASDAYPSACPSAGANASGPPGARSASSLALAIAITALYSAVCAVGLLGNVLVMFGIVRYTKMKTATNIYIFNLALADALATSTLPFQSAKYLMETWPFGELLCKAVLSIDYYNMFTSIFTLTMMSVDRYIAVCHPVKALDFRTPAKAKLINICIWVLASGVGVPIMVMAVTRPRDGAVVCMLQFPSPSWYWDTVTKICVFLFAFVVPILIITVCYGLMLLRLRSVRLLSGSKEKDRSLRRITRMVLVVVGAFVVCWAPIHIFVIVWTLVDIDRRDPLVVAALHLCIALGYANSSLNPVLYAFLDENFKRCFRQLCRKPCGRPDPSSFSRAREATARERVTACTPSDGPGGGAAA

[3] = biological target: cGMP-specific 3',5'-cyclic phosphodiesterase (Homo sapiens, UniProt O76074); test: DRUGMATRIX: Phosphodiesterase PDE5 enzyme inhibition (substrate: [3H]cGMP + cGMP); type: tissue-based, Platelet; conditions: platelet; Not Active = under 50% inhibition at 10 µM

SMILES	IC50 [1]	IC50 (D(3) dopamine receptor; cho)	IC50 (Histamine H2 receptor; cho-k1)	IC50 ([2]; hek293)	IC50 [3]	IC50 ([1]; read-out: IC50) [µM]	IC50 (D(3) dopamine receptor; read-out: IC50) [µM]	Ki (D(3) dopamine receptor) [µM]	IC50 (Histamine H2 receptor; read-out: IC50) [µM]	Ki (Histamine H2 receptor) [µM]	IC50 ([2]; read-out: IC50) [µM]	Ki ([2]; read-out: Ki) [µM]
CCCCC(=O)N(Cc1ccc(-c2ccccc2-c2nnn[nH]2)cc1)[C@H](C(=O)O)C(C)C	Not Active	Not Active	Not Active	Not Active	Not Active							
O=C(O)COc1ccc(C(=O)c2cccs2)c(Cl)c1Cl		Not Active	Not Active	Not Active	Not Active	3.21						
CN1[C@@H]2CC[C@H]1C[C@@H](OC(c1ccccc1)c1ccccc1)C2 [BENZTROPINE]	Not Active			Not Active	Not Active		0.654	0.222	1.21	1.19		
C[C@@](Cc1ccc(O)c(O)c1)(NN)C(=O)O.O [CARBIDOPA]	Not Active	Not Active	Not Active	Not Active	Not Active							
CN1CCN(C2=Nc3cc(Cl)ccc3Nc3ccccc32)CC1 [CLOZAPINE]	Not Active			Not Active	Not Active				[…]	[…]		
CC(C)NC[C@@H](O)COc1cccc2ccccc12 [DEXPROPRANOLOL]	Not Active	Not Active	Not Active	Not Active	Not Active							
CC(C)NC[C@H](O)COc1cccc2ccccc12 [LEVOPROPRANOLOL]	Not Active	Not Active	Not Active	Not Active	Not Active							
O=C(O)CCCCC1CCSS1 (stereo not drawn) [LIPOIC ACID, ALPHA]	Not Active	Not Active	Not Active	Not Active	Not Active							
CN(C)C(=O)C(CCN1CCC(O)(c2ccc(Cl)cc2)CC1)(c1ccccc1)c1ccccc1 [LOPERAMIDE]	Not Active				Not Active		1.34	0.454	3.08	3.03		
Clc1ccc(COC(Cn2ccnc2)c2ccc(Cl)cc2Cl)c(Cl)c1 (centres undefined) [MICONAZOLE]	Not Active				Not Active		3.2	1.09	6.75	6.64	3.39	1.19
Oc1ccc2c3c1O[C@H]1[C@@H](O)CC[C@@]4(O)[C@@H](C2)N(CC2CCC2)CC[C@]314 [NALBUPHINE]	Not Active	Not Active	Not Active		Not Active							
C[C@]12C=CC(=O)C=C1CC[C@@H]1[C@@H]2C(=O)C[C@@]2(C)[C@H]1CC[C@]2(O)C(=O)CO [PREDNISONE]	Not Active	Not Active	Not Active	Not Active	Not Active							
OCCOCCN1CCN(C2=Nc3ccccc3Sc3ccccc32)CC1 [QUETIAPINE]	Not Active		Not Active	Not Active	Not Active							
COC(=O)[C@H]1[C@H]2C[C@@H]3c4[nH]c5cc(OC)ccc5c4CCN3C[C@H]2C[C@@H](OC(=O)c2cc(OC)c(OC)c(OC)c2)[C@@H]1OC [RESERPINE]	Not Active	Not Active	Not Active	Not Active	Not Active							
